In ChEMBL document CHEMBL1201862, “PubChem BioAssay data set” (2004):
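Where inhibition never reached the appropriate level, the endpoint shown equals the highest concentration tested. Otherwise, values were interpolated linearly from a five-concentration, 48-hour dose response in 96-well plates. Abbreviation: GI50, concentration required for 50% inhibition of growth.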 The source made the active and inactive calls. No stated cut-off is given here; in the data, active = GI50 up to about 1.1 µM and inactive = higher.

How the values were obtained:
Assay in all cases: NCI-60 cell line screen, 48 h
SK-MEL-28 = test system: SK-MEL-28
SNB-19 = test system: SNB-19
Malme-3M = test system: Malme-3M
SNB-75 = test system: SNB-75
COLO 205 = test system: COLO 205
SF-268 = test system: SF-268
MOLT-4 = test system: MOLT-4
NCI/ADR-RES = test system: NCI/ADR-RES
UACC-62 = test system: UACC-62
SK-OV-3 = test system: SK-OV-3
TK-10 = test system: TK-10
Hs-578T = test system: Hs-578T
HCT-116 = test system: HCT-116
OVCAR-4 = test system: OVCAR-4
HCC 2998 = test system: HCC 2998
RPMI-8226 = test system: RPMI-8226
A549 = test system: A549
MDA-MB-231 = test system: MDA-MB-231
NCI-H460 = test system: NCI-H460
A498 = test system: A498

Measured: GI50

COc1cccc2c1C(=O)C(=O)c1c-2oc(=O)c2cc(C)cc(OC)c12
inactive: SK-MEL-28 53.6 µM | SNB-19 37.8 µM | Malme-3M 26.9 µM | SNB-75 22.6 µM | COLO 205 67 µM | SF-268 17.3 µM | MOLT-4 23 µM | NCI/ADR-RES 15.8 µM | UACC-62 31 µM | SK-OV-3 58.5 µM | TK-10 > 75 µM | Hs-578T 19.6 µM | HCT-116 27.4 µM | OVCAR-4 14.9 µM | HCC 2998 14.5 µM | RPMI-8226 20.6 µM | A549 > 75 µM | MDA-MB-231 21.3 µM | NCI-H460 > 75 µM | A498 > 75 µM

N#C/C(=C\Nc1ccccn1)C(=O)C1CC1
inactive: SK-MEL-28 > 100 µM | SNB-19 > 100 µM | Malme-3M > 100 µM | SNB-75 > 100 µM | COLO 205 > 100 µM | SF-268 > 100 µM | MOLT-4 > 100 µM | NCI/ADR-RES > 100 µM | UACC-62 > 100 µM | SK-OV-3 > 100 µM | TK-10 > 100 µM | Hs-578T > 100 µM | HCT-116 > 100 µM | OVCAR-4 > 100 µM | HCC 2998 > 100 µM | RPMI-8226 > 100 µM | A549 > 100 µM | MDA-MB-231 > 100 µM | NCI-H460 > 100 µM | A498 > 100 µM

c1ccc(-c2nnc(SCc3c[nH]c4ccccc34)n2-c2ccccc2)cc1
inactive: SK-MEL-28 75.3 µM | SNB-19 42.1 µM | Malme-3M > 100 µM | SNB-75 18.7 µM | COLO 205 > 100 µM | SF-268 38.2 µM | MOLT-4 8.11 µM | NCI/ADR-RES 22.6 µM | UACC-62 21.5 µM | SK-OV-3 32.4 µM | TK-10 22.2 µM | Hs-578T 17.4 µM | HCT-116 35.6 µM | OVCAR-4 29.5 µM | HCC 2998 27.4 µM | RPMI-8226 > 100 µM | A549 34.4 µM | MDA-MB-231 29.4 µM | NCI-H460 12.1 µM | A498 19.3 µM

COC1/C=C\OC2(C)Oc3c(C)c(O)c4c(O)c(c(CN(C)C)c(O)c4c3C2=O)NC(=O)/C(C)=C\C=C/C(C)C(O)C(C)C(O)C(C)C(OC(C)=O)C1C (stereo not given)
inactive: SK-MEL-28 31.4 µM | SNB-19 42.9 µM | Malme-3M 19.3 µM | SNB-75 39.3 µM | COLO 205 17.5 µM | SF-268 33.3 µM | MOLT-4 15.5 µM | NCI/ADR-RES > 100 µM | UACC-62 18.3 µM | SK-OV-3 > 100 µM | TK-10 35.3 µM | Hs-578T 30.7 µM | HCT-116 18.3 µM | OVCAR-4 36.6 µM | HCC 2998 20.5 µM | RPMI-8226 6.5 µM | A549 27.4 µM | MDA-MB-231 28.8 µM | NCI-H460 32.1 µM | A498 > 100 µM

Cc1cccc(/N=N/c2c(C)nn(C(=O)CC(=O)Nc3ccccc3)c2C)c1
inactive: SK-MEL-28 > 100 µM | SNB-19 > 100 µM | Malme-3M > 100 µM | SNB-75 > 100 µM | COLO 205 > 100 µM | SF-268 > 100 µM | MOLT-4 > 100 µM | NCI/ADR-RES > 100 µM | UACC-62 > 100 µM | SK-OV-3 > 100 µM | TK-10 > 100 µM | Hs-578T > 100 µM | HCT-116 > 100 µM | OVCAR-4 > 100 µM | HCC 2998 > 100 µM | RPMI-8226 > 100 µM | A549 > 100 µM | MDA-MB-231 > 100 µM | NCI-H460 > 100 µM | A498 > 100 µM

O[C@@H]1C[C@@H]2N[C@@](O)(C[C@@H]2O)[C@H]1O
inactive: SK-MEL-28 > 100 µM | SNB-19 > 100 µM | Malme-3M > 100 µM | SNB-75 84.3 µM | COLO 205 > 100 µM | SF-268 > 100 µM | MOLT-4 > 100 µM | NCI/ADR-RES > 100 µM | UACC-62 > 100 µM | SK-OV-3 > 100 µM | TK-10 > 100 µM | Hs-578T > 100 µM | HCT-116 > 100 µM | OVCAR-4 > 100 µM | HCC 2998 > 100 µM | RPMI-8226 > 100 µM | A549 > 100 µM | MDA-MB-231 > 100 µM | NCI-H460 > 100 µM | A498 > 100 µM

OCCCCn1cc(Cn2ncc3c(SCc4ccccc4)ncnc32)nn1
inactive: SK-MEL-28 51.2 µM | SNB-19 65.5 µM | Malme-3M > 100 µM | SNB-75 38.7 µM | COLO 205 31 µM | SF-268 63.1 µM | MOLT-4 21.3 µM | NCI/ADR-RES 21.6 µM | UACC-62 44.5 µM | SK-OV-3 89.1 µM | TK-10 > 100 µM | Hs-578T 26 µM | HCT-116 33.6 µM | OVCAR-4 28.9 µM | HCC 2998 56.4 µM | RPMI-8226 40.9 µM | A549 42.7 µM | MDA-MB-231 75.7 µM | NCI-H460 41.4 µM | A498 43.5 µM

O=CCCCCCOCc1ccccc1
inactive: SK-MEL-28 > 100 µM | SNB-19 > 87.1 µM | Malme-3M > 67.1 µM | SNB-75 > 78.2 µM | COLO 205 > 100 µM | SF-268 > 100 µM | MOLT-4 16.9 µM | NCI/ADR-RES > 55.8 µM | UACC-62 > 58.1 µM | SK-OV-3 > 100 µM | TK-10 99.5 µM | Hs-578T > 100 µM | HCT-116 27 µM | OVCAR-4 > 87.5 µM | HCC 2998 > 100 µM | RPMI-8226 25.1 µM | A549 43.6 µM | MDA-MB-231 > 87.1 µM | NCI-H460 23.3 µM | A498 > 100 µM

CC1(C)C(=O)C2(C#N)CCC1C2 (stereo not given)
inactive: SK-MEL-28 > 100 µM | SNB-19 > 100 µM | Malme-3M > 100 µM | SNB-75 > 84.7 µM | COLO 205 > 100 µM | SF-268 > 100 µM | MOLT-4 > 100 µM | NCI/ADR-RES > 100 µM | UACC-62 > 100 µM | SK-OV-3 > 100 µM | TK-10 > 100 µM | Hs-578T > 100 µM | HCT-116 > 100 µM | OVCAR-4 > 100 µM | HCC 2998 > 100 µM | RPMI-8226 > 76.9 µM | A549 > 100 µM | MDA-MB-231 > 100 µM | NCI-H460 > 100 µM | A498 > 100 µM

COC(O)C(=O)c1c2c(cc3c1CCC3)CCC2 (stereo not given)
inactive: SK-MEL-28 > 100 µM | SNB-19 > 100 µM | Malme-3M > 100 µM | SNB-75 > 100 µM | COLO 205 > 100 µM | SF-268 > 100 µM | MOLT-4 > 100 µM | NCI/ADR-RES > 100 µM | UACC-62 > 100 µM | SK-OV-3 > 100 µM | TK-10 > 100 µM | Hs-578T > 100 µM | HCT-116 > 100 µM | OVCAR-4 > 100 µM | HCC 2998 > 100 µM | RPMI-8226 55.1 µM | A549 > 100 µM | MDA-MB-231 > 100 µM | NCI-H460 > 100 µM | A498 > 100 µM
